Laboratory results published in ChEMBL document CHEMBL2169792, “Synthesis of new 4-thiazolidinone-, pyrazoline-, and isatin-based conjugates with promising antitumor activity” (J Med Chem, 2012).

What was measured:
Type in all cases: functional
[1] = Cytotoxicity against human renal cancer cells after 48 hrs by SRB assay; conditions: Cancer cell lines
[2] = Cytotoxicity against human ovarian cancer cells after 48 hrs by SRB assay; conditions: Cancer cell lines
SK-MEL-5 = assay: Cytotoxicity against human SK-MEL-5 cells assessed as cell growth at 10 uM after 48 hrs by SRB assay; conditions: SK-MEL-5, 48 h, read-out: Activity
[3] = Cytotoxicity against human melanoma cells after 48 hrs by SRB assay; conditions: Melanoma cell; for CC50: read-out: LC50 (the source's name)
[4] = Cytotoxicity against human non-small cell lung cancer cells after 48 hrs by SRB assay; conditions: Cancer cell lines; for CC50: read-out: LC50 (the source's name)
[5] = Cytotoxicity against human colon cancer cells after 48 hrs by SRB assay; conditions: Cancer cell lines
[6] = Cytotoxicity against human breast cancer cells after 48 hrs by SRB assay; conditions: Cancer cell lines
[7] = Cytotoxicity against human leukemia cells after 48 hrs by SRB assay; conditions: Leukemia cell; for CC50: read-out: LC50 (the source's name)
[8] = Cytotoxicity against human CNS cancer cells after 48 hrs by SRB assay; conditions: Cancer cell lines
[9] = Cytotoxicity against human prostate cancer cells after 48 hrs by SRB assay; conditions: Cancer cell lines
CCRF-CEM = assay: Cytotoxicity against human CCRF-CEM cells assessed as cell growth at 10 uM after 48 hrs by SRB assay; conditions: read-out: Activity

SMILES	GI50 [1] [µM]	LC50 [1] [µM]	TGI [1] [µM]	GI50 [2] [µM]	LC50 (concentration causing 50% net cell kill) [2] [µM]	TGI [2] [µM]	GI50 [3] [µM]	TGI [3] [µM]	CC50 [3] [µM]	GI50 [4] [µM]	TGI [4] [µM]	CC50 [4] [µM]	GI50 [5] [µM]	LC50 (concentration lethal to 50% of cells) [5] [µM]	TGI [5] [µM]	GI50 [6] [µM]	LC50 (concentration causing 50% net cell kill) [6] [µM]	TGI [6] [µM]	GI50 [7] [µM]	TGI [7] [µM]	other results
O=C1N=C(N2N=C(c3ccccc3)CC2c2ccc(Cl)cc2)S/C1=C1/C(=O)Nc2ccccc21 (stereo unspecified)	0.27	22.1	0.85	0.23	26.7	0.65	0.28	0.54	1	0.23	6.29	30	0.19	0.81	0.39	0.32	39.4	0.91	0.37	70.8	growth at 10 µM (SK-MEL-5): -56.9%; CC50 [7]: 100 µM; GI50 [8]: 0.19 µM; LC50 (concentration giving 50% net cell kill) [8]: 2.07 µM; TGI [8]: 0.5 µM; GI50 [9]: 0.25 µM; TGI [9]: 0.85 µM
COc1ccc(-c2cc(-c3ccc(Cl)cc3)n(C3C(=O)Nc4ccc(Br)cc43)n2)cc1 (stereo unspecified)	9.2	62.1	32.3	9.75	64.8	28.7	13.2	49.3	81.1	7.53	30	58.6	7.2	78.8	36.3	8.1	65.8	24.6	12.3	67	growth at 10 µM (CCRF-CEM): 58.6%; CC50 [7]: 100 µM; GI50 [8]: 5.48 µM; LC50 (concentration giving 50% net cell kill) [8]: 46.5 µM; TGI [8]: 16.7 µM; GI50 [9]: 7.65 µM; LC50 [9]: 61.2 µM; TGI [9]: 22.1 µM
COc1ccc(-c2cc(-c3ccc(Cl)cc3)n(C3C(=O)Nc4ccc(Cl)cc43)n2)cc1 (stereo unspecified)	3.75	42.4	13.2	3.68	52.3	14.7	9.4	46.7	76.4	4.37	23.2	59.8	6.15	69.4	28.6	6.29	47.6	17.8	27.9	79.2	growth at 10 µM (CCRF-CEM): 50.8%; CC50 [7]: 100 µM; GI50 [8]: 3.94 µM; LC50 (concentration giving 50% net cell kill) [8]: 42.2 µM; TGI [8]: 14.4 µM; GI50 [9]: 6.49 µM; LC50 [9]: 62.4 µM; TGI [9]: 20.3 µM
COc1ccc(C2=NN(C3=NC(=O)/C(=C4\C(=O)Nc5ccc(Br)cc54)S3)C(c3ccc(Cl)cc3)C2)cc1 (stereo unspecified)	0.14	4	0.37	0.19	29.8	14.7	0.16	0.34	0.99	0.12	0.34	12.4	0.13	16.1	7.44	0.14	19.2	0.4	0.19	14	growth at 10 µM (SK-MEL-5): -56.4%; CC50 [7]: 100 µM; GI50 [8]: 0.12 µM; LC50 (concentration giving 50% net cell kill) [8]: 15.7 µM; TGI [8]: 1.48 µM; GI50 [9]: 0.18 µM; LC50 [9]: 100 µM; TGI [9]: 1.01 µM
